In US20250059159A1, “PLPRO INHIBITORS” (SHANGHAI SYNERGY PHARMACEUTICAL SCIENCES CO., LTD., priority 2021, published 2025):

Legend:
SARS-CoV2 (Omicron) = assay: SARS-CoV2 antiviral cellular activity assay in A549:hACE2 cells; assay type: cell-based; settings: Severe acute respiratory syndrome coronavirus 2, 48 h; read-out: Antiviral cellular EC50 range (Omicron)
SARS-CoV-2 PLpro = SARS-CoV-2 PLpro (Severe acute respiratory syndrome coronavirus 2 (2019-nCoV) (SARS-CoV-2), UniProt P0DTD1); assay: PLpro enzymatic inhibition assay (IC50 value determination); assay type: biochemical; settings: 60 min preincubation for covalent inhibitors, 10 min for non-covalent, read-out: Inhibition of SARS-CoV-2 PLpro IC50 range

Compound | EC50 (SARS-CoV2 (Omicron)) [nM] | IC50 (SARS-CoV-2 PLpro) [nM]
COC(=O)/C=C/CNC(=O)CNC(=O)CN(C1CCN([C@H](C)c2cccc3ccccc23)CC1)S(C)(=O)=O [Compound 20, methyl (R,E)-4-(2-(2-(N-(1-(1-(naphthalen-1-yl)ethyl)piperidin-4-yl)methylsulfonamido)acetamido)acetamido)but-2-enoate] | < 100 | < 100
C#CCNC(=O)CNC(=O)CN(C1CCN([C@H](C)c2cccc3ccccc23)CC1)S(C)(=O)=O [Compound 21, (R)-2-(N-(1-(1-(naphthalen-1-yl)ethyl)piperidin-4-yl)methylsulfonamido)-N-(2-oxo-2-(prop-2-yn-1-ylamino)ethyl)acetamide] | < 100 | < 100
C#CCNC(=O)CNC(=O)CN(C1CCN([C@H](C)c2cccc3ccccc23)CC1)S(=O)(=O)C1CC1 [Compound 60, (R)-2-(N-(1-(1-(naphthalen-1-yl)ethyl)piperidin-4-yl)cyclopropanesulfonamido)-N-(2-oxo-2-(prop-2-yn-1-ylamino)ethyl)acetamide] | < 100 | < 100
C#CCNC(=O)CNC(=O)CN(C1CCN([C@H](C)c2cccc3ccccc23)CC1)S(=O)(=O)c1ccccc1 [Compound 63, (R)-2-(N-(1-(1-(naphthalen-1-yl)ethyl)piperidin-4-yl)phenylsulfonamido)-N-(2-oxo-2-(prop-2-yn-1-ylamino)ethyl)acetamide] | < 100 | < 100
C#CCNC(=O)CNC(=O)CN(C1CCN([C@H](C)c2cccc3ccccc23)CC1)S(=O)(=O)N1CCCC1 [Compound 65, (R)-2-(N-(1-(1-(naphthalen-1-yl)ethyl)piperidin-4-yl)pyrrolidine-1-sulfonamido)-N-(2-oxo-2-(prop-2-yn-1-ylamino)ethyl)acetamide] | < 100 | < 100
C#CCNC(=O)CNC(=O)CN(CCC(C)=O)C1CCN([C@H](C)c2cccc3ccccc23)CC1 [Compound 79, (R)-2-((1-(1-(naphthalen-1-yl)ethyl)piperidin-4-yl)(3-oxobutyl)amino)-N-(2-oxo-2-(prop-2-yn-1-ylamino)ethyl)acetamide] | 100 to 1000 | < 100
C#CCNC(=O)CNC(=O)CN(C1CCN([C@H](C)c2cccc3ccccc23)CC1)S(=O)(=O)C(F)(F)F [Compound 80, (R)—N-(2-oxo-2-(prop-2-yn-1-ylamino)ethyl)-2-((1,1,1-trifluoro-N-(1-(1-(naphthalen-1-yl)ethyl)piperidin-4-yl)methyl)sulfonamido)acetamide] | 100 to 1000 | < 100
C#CCNC(=O)CNC(=O)CN(C1CCN(C(C)c2ccc(F)c3ccccc23)CC1)S(C)(=O)=O (stereo not shown) [Compound 107] | 100 to 1000 | < 100
C#CCNC(=O)CNC(=O)CN(C1CCN(C(CF)c2cccc3ccccc23)CC1)S(C)(=O)=O (stereo not shown) [Compound 144, 2-(N-(1-(2-fluoro-1-(naphthalen-1-yl)ethyl)piperidin-4-yl)methylsulfonamido)-N-(2-oxo-2-(prop-2-yn-1-ylamino)ethyl)acetamide] |  | 1000 to 10000
C#CCNC(=O)CNC(=O)CN(C1CCN([C@H](C)c2cccc3ccccc23)CC1)S(N)(=O)=O [Compound 145, (R)-2-((1-(1-(naphthalen-1-yl)ethyl)piperidin-4-yl)(sulfamoyl)amino)-N-(2-oxo-2-(prop-2-yn-1-ylamino)ethyl)acetamide 2,2,2-trifluoroacetate] |  | < 100
C#CC(=O)NNC(=O)CN(C1CCN([C@H](C)c2cccc3ccccc23)CC1)S(C)(=O)=O [Compound 147, (R)—N-(1-(1-(naphthalen-1-yl)ethyl)piperidin-4-yl)-N-(2-oxo-2-(2-propioloylhydrazineyl)ethyl)methanesulfonamide] |  | < 100
C#CCNC(=O)CNC(=O)CN(C1CCN(C(c2cccc3ccccc23)C(F)F)CC1)S(C)(=O)=O (stereo not shown) [Compound 148, 2-(N-(1-(2,2-difluoro-1-(naphthalen-1-yl)ethyl)piperidin-4-yl)methylsulfonamido)-N-(2-oxo-2-(prop-2-yn-1-ylamino)ethyl)acetamide] |  | 1000 to 10000
[2H]C([2H])([2H])C(c1cccc2ccccc12)N1CCC(N(CC(=O)NCC(=O)NCC#C)S(C)(=O)=O)CC1 (stereo not shown) [Compound 151, 2-(N-(1-(1-(naphthalen-1-yl)ethyl-2,2,2-d3)piperidin-4-yl)methylsulfonamido)-N-(2-oxo-2-(prop-2-yn-1-ylamino)ethyl)acetamide] |  | < 100
C#CCNC(=O)CNC(=O)[C@@H](C)N(C1CCN([C@H](C)c2cccc3ccccc23)CC1)S(C)(=O)=O [Compound 152, (R)-2-(N-(1-((R)-1-(naphthalen-1-yl)ethyl)piperidin-4-yl)methylsulfonamido)-N-(2-oxo-2-(prop-2-yn-1-ylamino)ethyl)propanamide] |  | < 100
[2H]C([2H])(C#C)NC(=O)CNC(=O)CN(C1CCN(C(C)c2cccc3ccccc23)CC1)S(C)(=O)=O (stereo not drawn) [Compound 153, 2-(N-(1-(1-(naphthalen-1-yl)ethyl)piperidin-4-yl)methylsulfonamido)-N-(2-oxo-2-((prop-2-yn-1-yl-1,l-d2)amino)ethyl)acetamide] |  | < 100
COC(CNC(=O)CNC(=O)CN(C1CCN(C(C)c2cccc3ccccc23)CC1)S(C)(=O)=O)OC (stereo not shown) [Compound 154, N-(2,2-dimethoxyethyl)-2-(2-(N-(1-(1-(naphthalen-1-yl)ethyl)piperidin-4-yl)methylsulfonamido)acetamido)acetamide] |  | 1000 to 10000
C#CC(C)(C)CNC(=O)CNC(=O)CN(C1CCN(C(C)c2cccc3ccccc23)CC1)S(C)(=O)=O (stereo not shown) [Compound 156, N-(2,2-dimethylbut-3-yn-1-yl)-2-(2-(N-(1-(1-(naphthalen-1-yl)ethyl)piperidin-4-yl)methylsulfonamido)acetamido)acetamide] |  | 1000 to 10000
C#CCCNC(=O)CNC(=O)CN(C1CCN(C(C)c2cccc3ccccc23)CC1)S(C)(=O)=O (stereo not shown) [Compound 157, N-(but-3-yn-1-yl)-2-(2-(N-(1-(1-(naphthalen-1-yl)ethyl)piperidin-4-yl)methylsulfonamido)acetamido)acetamide] |  | 100 to 1000
CC(c1cccc2ccccc12)N1CCC(N(CC(=O)NCC(=O)NC/C=C/C(N)=O)S(C)(=O)=O)CC1 (stereo not shown) [Compound 159, (E)-4-(2-(2-(N-(1-(1-(naphthalen-1-yl)ethyl)piperidin-4-yl)methylsulfonamido)acetamido)acetamido)but-2-enamide] |  | 100 to 1000
COC(=O)/C(C#N)=C/CNC(=O)CNC(=O)CN(C1CCN(C(C)c2cccc3ccccc23)CC1)S(C)(=O)=O (stereo not shown) [Compound 162, methyl (E)-2-cyano-4-(2-(2-(N-(1-(1-(naphthalen-1-yl)ethyl)piperidin-4-yl)methylsulfonamido)acetamido)acetamido)but-2-enoate] |  | 100 to 1000
C#CCNC(=S)CNC(=O)CN(C1CCN(C(C)c2cccc3ccccc23)CC1)S(C)(=O)=O (stereo not shown) [Compound 164, 2-(N-(1-(1-(naphthalen-1-yl)ethyl)piperidin-4-yl)methylsulfonamido)-N-(2-(prop-2-yn-1-ylamino)-2-thioxoethyl)acetamide] |  | < 100
C=CC(=O)NNC(=O)CN(C1CCN(C(C)c2cccc3ccccc23)CC1)S(C)(=O)=O (stereo not shown) [Compound 168, N-(2-(2-acryloylhydrazineyl)-2-oxoethyl)-N-(1-(1-(naphthalen-1-yl)ethyl)piperidin-4-yl)methanesulfonamide] |  | 1000 to 10000
C#Cc1nnc(NC(=O)CN(C2CCN(C(C)c3cccc4ccccc34)CC2)S(C)(=O)=O)o1 (stereo not shown) [Compound 170, N-(5-ethynyl-1,3,4-oxadiazol-2-yl)-2-(N-(1-(1-(naphthalen-1-yl)ethyl)piperidin-4-yl)methylsulfonamido)acetamide] |  | 1000 to 10000
